Values of other authors, collected in US11628185B2, “Stabilized active oxygen-generating antiseptic compositions, irrigation solutions, and articles” (priority 2021, dated 2023).

Tests used:
[1] = topical application prior to wound closure
[2] = all tested concentrations, even dilute 0.35%; used for more than 1 minute
[3] = system: osteoblasts, fibroblasts, and myoblasts

povidone-iodine
serum iodine level [1]: significant increases | chondrotoxic effect [2]: pronounced chondrotoxic effect | effect on cell migration and survival [3]: inhibiting cell migration and survival | effect of lavage on post-operative infection risk (post-operative infection; Mayo Clinic case series, more than 10,000 THAs and TKAs): no risk reduction effect | post-operative infection rates versus non-povidone-iodine lavage (post-operative infection; meta-analysis March 2020, seven studies, 31,213 TJA cases): no differences
